Assay results as given in patent publication US20060188898A1, “Markers for roscovitine” (Cyclacel Limited, priority 2003, published 2006).

Columns and labels:
HT29 colon cancer cells [1] = assay: Western blotting of protein expression in treated HT29 cells
Method: HT29 colon cancer cells were seeded into T175 flasks at 3×10^6 cells per flask and allowed to attach for 48 h. […] A cell pellet was made for protein analysis and RNA analysis.
To harvest cells, the medium was removed and cells were incubated with 5 ml trypsin for 5 min at 37° C. to detach them from the plastic. The cells were then pelleted, washed in ice cold PBS and resuspended in ice cold lysis buffer containing 50 mM HEPES pH7.4, 250 mM NaCl, 0.1% NP40, 1 mM DTT, 1 mM EDTA, 1 mM NaF, 10 mM β-glycerophosphate, 0.1 mM sodium orthovanadate and 1 complete protease inhibitor cocktail tablet (Roche, East Sussex, UK) per 10 ml of lysis buffer for 30 minutes on ice. Lysates were centrifuged at approx. 18, 000×g for 10 minutes at 4° C. to remove cellular debris. The supernatant was stored at −80° C. prior to use. The protein concentration of lysates was determined using the BCA protein assay (Pierce, Rockford, USA). Proteins were separated by SDS-PAGE using Novex precast tris-glycine gels (Invitrogen, Groningen, The Netherlands) and transferred to Immobilon-P membranes (Millipore, Bedford, USA). Membranes were blocked for 1 hour in TBS™ 50 mM Tris pH7.5, 150 mM NaCl, 0.1% Tween 20 (Sigma, Dorset, UK) and 3% milk. Immunoblotting with primary antibodies diluted in TBS™ was performed at 4° C. overnight, followed by a 1 hour incubation with HRP-conjugated secondary antibodies at room temperature. Membranes were washed with ECL reagents and exposed to Hyperfilm (Amersham Pharmacia Biotech, Buckinghamshire, UK).

CDK7 = CDK7 (Homo sapiens, UniProt P50613); conditions: cited from earlier work
CDK9 = CDK9 (Homo sapiens, UniProt P50750); conditions: cited from earlier work
cell cycle progression = conditions: cited from earlier work
HT29 colon cancer cells [2] = assay: cDNA microarray analysis of mRNA expression in treated HT29 cells; format: cell-based
From the text: Total RNA was extracted from cell pellets using TriZol (Life Technologies) and mRNA was purified using the Qiagen Oligotex system. mRNA from control and treated cells was labelled with either Cy3 or Cy5 (NEN or Amersham) fluorescent dCTPs respectively, creating cDNA probes. cDNA microarray slides are made and used as described in Eisen, MB and Brown PO. (1999) DNA Arrays for Analysis of Gene Expression. Methods in Enzymology 303:179-205.
The cDNA probes were then hybridised to the cDNA microarray slides overnight and then washed and scanned using an Axon Labs GenePix 4000B scanner. The slides were verified using GenePix software and normalised prior to analysis in GeneSpring.
A 2 fold cut-off was used to assign significance to a change in mRNA expression. Therefore, any mRNA with a normalised ratio of medians less than 0.5 (FIGS. 1, 3, 5 and 7) or greater than 2 (FIGS. 2, 4, 6 and 8) is deemed significant.

[3] = 50 μM CYC202, time course 4-48 h, Western blot
[4] = 50 μM CYC202, time course 4-48 h

Chain of CDK9 (P50750 whole entry, species assumed): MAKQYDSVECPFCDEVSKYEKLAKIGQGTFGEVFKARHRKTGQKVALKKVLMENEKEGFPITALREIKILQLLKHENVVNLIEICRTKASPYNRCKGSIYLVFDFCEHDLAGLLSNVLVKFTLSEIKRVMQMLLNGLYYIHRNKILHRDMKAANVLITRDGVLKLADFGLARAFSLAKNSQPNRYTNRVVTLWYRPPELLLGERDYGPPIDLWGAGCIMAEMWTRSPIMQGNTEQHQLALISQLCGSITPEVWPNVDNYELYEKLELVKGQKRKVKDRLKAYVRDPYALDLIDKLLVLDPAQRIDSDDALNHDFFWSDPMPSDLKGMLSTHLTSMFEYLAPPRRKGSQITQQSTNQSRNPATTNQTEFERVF
Chain of CDK9 (O60563 whole entry partner, species assumed): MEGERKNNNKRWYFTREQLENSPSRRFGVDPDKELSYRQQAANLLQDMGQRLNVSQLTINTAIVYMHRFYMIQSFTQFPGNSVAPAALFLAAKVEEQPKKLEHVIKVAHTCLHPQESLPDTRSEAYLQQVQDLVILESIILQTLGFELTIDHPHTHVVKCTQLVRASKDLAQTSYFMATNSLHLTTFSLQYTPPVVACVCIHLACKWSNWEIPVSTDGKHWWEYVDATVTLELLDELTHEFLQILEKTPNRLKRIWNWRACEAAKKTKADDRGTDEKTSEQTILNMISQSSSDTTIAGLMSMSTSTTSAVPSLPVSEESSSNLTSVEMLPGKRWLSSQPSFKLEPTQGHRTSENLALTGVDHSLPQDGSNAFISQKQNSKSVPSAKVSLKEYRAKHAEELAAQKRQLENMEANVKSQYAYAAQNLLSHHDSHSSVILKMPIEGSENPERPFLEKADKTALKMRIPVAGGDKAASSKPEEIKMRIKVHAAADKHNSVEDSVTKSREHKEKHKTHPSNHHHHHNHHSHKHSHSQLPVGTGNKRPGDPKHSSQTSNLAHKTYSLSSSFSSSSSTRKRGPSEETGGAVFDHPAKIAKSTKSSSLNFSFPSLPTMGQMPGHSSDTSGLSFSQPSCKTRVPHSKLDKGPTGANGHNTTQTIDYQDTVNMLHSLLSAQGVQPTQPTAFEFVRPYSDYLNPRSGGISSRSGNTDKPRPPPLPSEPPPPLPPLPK
Chain of CDK7 (P50613 whole entry, species assumed): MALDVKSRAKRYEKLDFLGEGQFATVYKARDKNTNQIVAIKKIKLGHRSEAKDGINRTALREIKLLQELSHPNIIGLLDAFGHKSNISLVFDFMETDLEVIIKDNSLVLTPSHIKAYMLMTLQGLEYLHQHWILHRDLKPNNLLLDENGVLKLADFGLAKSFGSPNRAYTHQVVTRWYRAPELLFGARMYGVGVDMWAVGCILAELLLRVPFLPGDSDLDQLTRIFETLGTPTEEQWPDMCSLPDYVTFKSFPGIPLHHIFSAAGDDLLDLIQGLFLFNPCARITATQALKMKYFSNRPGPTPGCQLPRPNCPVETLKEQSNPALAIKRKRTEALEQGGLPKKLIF
Chain of CDK7 (P51946 whole entry partner, species assumed): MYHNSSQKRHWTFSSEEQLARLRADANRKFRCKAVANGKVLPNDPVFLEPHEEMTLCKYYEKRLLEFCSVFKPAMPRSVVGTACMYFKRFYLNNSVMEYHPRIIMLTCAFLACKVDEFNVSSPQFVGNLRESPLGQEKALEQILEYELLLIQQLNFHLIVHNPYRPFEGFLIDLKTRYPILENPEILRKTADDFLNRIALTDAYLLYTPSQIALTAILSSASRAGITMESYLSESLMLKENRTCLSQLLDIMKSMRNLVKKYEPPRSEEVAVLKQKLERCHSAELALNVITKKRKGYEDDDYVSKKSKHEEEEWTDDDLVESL

Question: For `CC[C@H](CO)Nc1nc(NCc2ccccc2)c2ncn(C(C)C)c2n1` [CYC202, 2-(R)-(1-ethyl-2-hydroxyethylamino)-6-benzylamino-9-isopropylpurine], which c-JUN protein expression (HT29 colon cancer cells [1]; 50 μM CYC202, 4 h and 12 h, Western blot, phosphorylated, active form) is on record?
Answer: The c-JUN protein expression was “induced at 4 h and 12 h”.

Question: And the EGR-1 protein expression (HT29 colon cancer cells [1]; 50 μM CYC202, Western blot)?
Answer: Its EGR-1 protein expression is “transiently induced at 12 h”.

Question: And the c-JUN protein expression (HT29 colon cancer cells [1]; 50 μM CYC202, after 24 h, Western blot)?
Answer: Its c-JUN protein expression is “lost after 24 h”.

Question: And the “aurora 1 protein expression” value (HT29 colon cancer cells [1]; [3])?
Answer: Its value is “markedly inhibited”.

Question: What about the “cyclin B2 protein expression” value (HT29 colon cancer cells [1]; [3]) of the same compound?
Answer: The value was “markedly inhibited”.

Question: What about the “polo-like kinase 1 protein expression” value (HT29 colon cancer cells [1]; [3]) of the same compound?
Answer: Its value is “markedly inhibited”.

Question: What about the “inhibition of CDK7” value (CDK7) of the same compound?
Answer: Its value is “inhibit”.

Question: And the “inhibition of CDK9” value (CDK9)?
Answer: Its value is “inhibit”.

Question: And the “effect on cell cycle progression” value (cell cycle progression)?
Answer: The value was “block cell cycle progression in late G1/early S and in M-phase”.

Question: What about the “c-JUN mRNA expression” value (HT29 colon cancer cells [2]; 50 μM CYC202, 4-48 h) of the same compound?
Answer: The value was “induced to significant levels from 4 h and is maintained at that level for the duration of the experiment”.

Question: And the “EGR-1 mRNA expression” value (HT29 colon cancer cells [2]; 50 μM CYC202, 4-48 h, two fold cut off)?
Answer: Its value is “induced from as early as 4 h and is maintained above the two fold cut off for the duration of the experiment”.

Question: What about the “aurora 1 mRNA expression” value (HT29 colon cancer cells [2]; [4]) of the same compound?
Answer: Its value is “markedly inhibited”.

Question: What about the “cyclin B2 mRNA expression” value (HT29 colon cancer cells [2]; [4]) of the same compound?
Answer: The value was “markedly inhibited”.

Question: What about the “polo-like kinase 1 mRNA expression” value (HT29 colon cancer cells [2]; [4]) of the same compound?
Answer: Its value is “markedly inhibited”.
